ChEMBL document CHEMBL1201862, “PubChem BioAssay data set” (2004)
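Assay format: 96-well plates, 48-hour exposure. GI50 = concentration required for 50% inhibition of growth.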 Calls of active or inactive are those of the source. Cut-off read from the data, not from the text of the source: active = GI50 up to about 1.1 µM and inactive = higher.

Key:
Experiment in all cases: growth of human tumour cells (NCI), 48 h
[1] = system: 786-0
[2] = system: A549
[3] = system: CCRF-CEM
[4] = system: COLO 205
[5] = system: EKVX
[6] = system: HT-29
[7] = system: LOX IMVI
[8] = system: MOLT-4
[9] = system: Malme-3M
[10] = system: NCI-H226
[11] = system: NCI-H23
[12] = system: NCI-H460
[13] = system: OVCAR-5
[14] = system: SK-MEL-28
[15] = system: U-251
[16] = system: CAKI-1
[17] = system: SR

Measured: GI50

O=C(c1ccc(Cl)cc1Cl)N(/N=C/C=C/c1ccccc1)c1nnc(-c2ccccc2)c(-c2ccccc2)n1
inactive: [1] > 100 µM | [2] > 100 µM | [3] > 100 µM | [4] > 100 µM | [5] > 100 µM | [6] > 100 µM | [7] > 100 µM | [8] 70 µM | [9] > 100 µM | [10] > 100 µM | [11] > 100 µM | [12] > 100 µM | [13] > 100 µM | [14] > 100 µM | [15] > 100 µM

CC(C)CC(N)C(=O)OCN1C(=O)C2C3C=CC(C2C1=O)C1C2C(=O)N(COC(=O)C(N)CC(C)C)C(=O)C2C31 (stereo unspecified)
inactive: [1] > 100 µM | [2] > 100 µM | [16] > 100 µM | [3] 75.3 µM | [4] > 92.3 µM | [5] > 100 µM | [6] > 100 µM | [7] > 41.5 µM | [8] > 100 µM | [9] > 100 µM | [10] > 100 µM | [11] > 100 µM | [12] > 59.7 µM | [13] > 100 µM | [14] > 100 µM | [15] > 100 µM

Cn1nc(-c2ccccc2)c(C(=O)/C=C/c2ccc(F)cc2)c(N2CCCC2)c1=O
inactive: [1] 13 µM | [2] 15.1 µM | [16] 12.2 µM | [3] 5.36 µM | [4] 15.1 µM | [5] 19.2 µM | [6] 4.99 µM | [7] 17.9 µM | [8] 4.41 µM | [11] 10.9 µM | [12] 21.7 µM | [14] 16 µM | [15] 13.2 µM

CC#CC1C2CCCC1(CSc1ccccc1)NC(=O)O2 (stereo unspecified)
inactive: [1] > 100 µM | [2] > 100 µM | [16] > 100 µM | [4] > 100 µM | [5] > 100 µM | [6] > 100 µM | [8] 30.3 µM | [9] > 100 µM | [10] > 100 µM | [11] > 100 µM | [12] > 100 µM | [13] > 100 µM | [17] > 100 µM | [15] > 100 µM

NC(=O)c1ccc([N+](=O)[O-])cc1
inactive: [1] > 100 µM | [2] > 100 µM | [16] > 100 µM | [3] > 100 µM | [4] > 100 µM | [5] > 100 µM | [6] > 100 µM | [7] > 100 µM | [8] > 100 µM | [9] > 100 µM | [10] > 100 µM | [11] > 100 µM | [12] > 100 µM | [14] > 100 µM | [15] > 100 µM

O=C1[C@@H]2C(c3c(Cl)cccc3Cl)=NO[C@@H]2C(=O)N1c1ccc(Cc2ccc(N3C(=O)[C@H]4C(c5c(Cl)cccc5Cl)=NO[C@H]4C3=O)cc2)cc1
inactive: [1] > 100 µM | [2] > 100 µM | [16] > 100 µM | [3] > 100 µM | [4] > 100 µM | [5] > 100 µM | [6] > 100 µM | [7] > 100 µM | [8] > 100 µM | [9] > 100 µM | [10] > 100 µM | [11] > 100 µM | [12] > 100 µM | [13] > 100 µM | [14] > 100 µM | [15] > 100 µM

COc1ccc(CCc2cc(OC)c(O)c(OC)c2)cc1
inactive: [1] > 100 µM | [2] 47.1 µM | [16] 42 µM | [3] 77.1 µM | [4] > 100 µM | [5] > 100 µM | [6] 41 µM | [8] 35.7 µM | [9] 74.1 µM | [10] 41.8 µM | [11] 37.2 µM | [12] 82 µM | [13] 44 µM | [14] 19.6 µM | [17] 37.3 µM | [15] 41.8 µM

O=C(O)c1cc(=O)c2cc(C(=O)c3cccs3)c(Cl)c(Cl)c2o1
inactive: [1] > 100 µM | [2] > 100 µM | [16] > 100 µM | [3] > 100 µM | [5] > 100 µM | [6] > 100 µM | [8] > 100 µM | [9] > 100 µM | [10] > 100 µM | [11] > 100 µM | [12] > 100 µM | [13] > 100 µM | [14] > 100 µM | [17] > 100 µM | [15] > 100 µM

COc1ccc(COCC(Cn2ccnc2)OCc2ccc(C(=O)O)cc2)cc1 (stereo unspecified)
inactive: [1] > 100 µM | [2] > 100 µM | [16] > 100 µM | [3] > 100 µM | [4] > 100 µM | [5] > 100 µM | [6] > 100 µM | [7] > 100 µM | [8] > 100 µM | [9] > 100 µM | [10] > 100 µM | [11] > 100 µM | [12] > 100 µM | [13] > 100 µM | [14] > 100 µM | [15] > 100 µM

COc1cccc(N2C(=O)[C@H]3CC(C)c4c([nH]c5ccccc45)[C@H]3C2=O)c1 (stereo partly specified)
inactive: [1] 21.7 µM | [2] 41.3 µM | [16] 39.6 µM | [3] 64.4 µM | [4] 36.1 µM | [5] > 100 µM | [6] 36.1 µM | [7] 50.6 µM | [8] 74.1 µM | [9] 92.3 µM | [10] 93.5 µM | [11] 45.7 µM | [12] > 100 µM | [14] 62.4 µM | [15] 38.5 µM

O=c1c2ccccc2nc(-c2ccccc2)n1NC1OC(CO)C(O)C(O)C1O (stereo unspecified)
inactive: [1] > 100 µM | [2] > 100 µM | [16] > 100 µM | [3] > 100 µM | [4] > 100 µM | [5] > 100 µM | [6] > 100 µM | [8] > 100 µM | [9] > 100 µM | [10] > 100 µM | [11] > 100 µM | [12] > 100 µM | [13] > 100 µM | [14] > 100 µM | [15] > 100 µM

Clc1ccccc1/C=C/c1cscn1
inactive: [3] > 100 µM | [5] > 100 µM | [6] > 100 µM | [7] > 100 µM | [8] > 100 µM | [9] > 100 µM | [11] > 100 µM | [12] > 100 µM | [13] > 100 µM | [14] > 100 µM | [17] > 100 µM | [15] > 100 µM

CSc1ccc(/C=C2/C[N+](C)(C)C/C(=C/c3ccc(SC)cc3)C2=O)cc1
inactive: [1] 13.7 µM | [2] 21.9 µM | [3] 3.56 µM | [4] 5.18 µM | [5] 19.1 µM | [8] 5.31 µM | [9] 4.16 µM | [10] 32.1 µM | [11] > 10 µM | [13] 23.4 µM | [14] 8.09 µM | [17] 8.57 µM | [15] 2.54 µM
